Test results as given in US20230135608A1 (CURACLE CO., LTD., priority 2021, published 2023).
Where a name gives a salt, the structure may show the parent alone.

Columns and labels:
[1] = system: rat renal fibroblast cell line (NRK-49F); conditions: cited from earlier work
[2] = system: Nrf2; conditions: cited from earlier work
[3] = system: streptozotocin (STZ, 150 mg/kg)-induced diabetic nephropathy mouse model; test: UUO renal fibrosis and streptozotocin-induced diabetic nephropathy mouse models; type: in vivo; conditions: UUO and STZ (150 mg/kg) mouse models
Experimental: As a result, it was confirmed that a dose of 25 mg/kg was effective for diabetic nephropathy. When the dose confirmed in the animal model is converted into HED (Human Equivalent Dose), it is calculated as follows. HED=Animal dose in mg/kg×{Animal weight in kg/Human weight in kg}×60 kg=25 mg/kg×0.08×60 kg=120 mg

[4] = system: RMCs and rat glomerular mesangial cells; conditions: cited from earlier work
[5] = system: AD-293 cells; conditions: cited from earlier work
[6] = system: NRK-49F cells; conditions: DMF 40 μmol/1, semi-quantitative RT-PCR; cited from earlier work
[7] = system: NRK-49F and RMC cells; conditions: cited from earlier work
[8] = system: UUO-induced renal fibrosis model; conditions: cited from earlier work
[9] = system: TGF-β/Smad signaling and ECM expression; conditions: chemical inhibitor of NQO1 or HO-1 added to DMF; cited from earlier work
[10] = cited from earlier work

## COC(=O)/C=C/C(=O)OC [DMF, Dimethyl fumarate]
[1]; 24 hours of TGF-β treatment
  collagen type 1 induced by TGF-β (mRNA and protein): dose-dependently inhibit
[1]
  TGF-β-mediated expression of PAI-1, a-SMA, and fibronectin mRNA and protein: inhibited the TGF-β-mediated expression of PAI-1, a-SMA, and fibronectin mRNA and protein dose-dependently
[2]; NRK-49F cells
  Nrf2 protein expression: sharp increase
  nuclear accumulation of Nrf2: induced the nuclear accumulation of Nrf2 dose-dependently
[2]; RMC cells
  expression of Nrf2 protein: rapidly increased
[2]; after DMF treatment
  expression of p62: increased 6 h after the DMF treatment and up to 12 hours thereafter
[3]
  dose effective for diabetic nephropathy: 25 mg/kg
[4]
  TGF-β-induced expression of PAI-1 protein: inhibitory effect
[5]; AD-293 cells, PAI-1-Luc reporter
  activity of the PAI-1 promoter induced by TGF-β: inhibited
[5]; reporter with 9 copies of the Smad3 binding site
  activity of the (CAGA)9MLP-Luc promoter induced by TGF-β or ALK5: inhibited
[6]
  expression of NQO1 and HO-1: increased
[7]
  Smad3 phosphorylation induced by TGF-β: inhibited
[8]
  expression of collagen type I, fibronectin, PAI-1 and α-SMA related to fibrosis: decreased the expression of collagen type I, fibronectin, PAI-1 and α-SMA
  expression of p-Smad3 increased by UUO: decreased the expression of p-Smad3

## COC1=CC(=O)c2c(c(COc3ccc([N+](=O)[O-])cc3)c(C)n2C)C1=O [ES936]
[9]
  reversal of the inhibitory effect of DMF on the TGF-β/Smad signaling and ECM expression: did not reverse

## COC(=O)/C=C/C(=O)O [MMF, monomethyl fumarate]
[10]; 24 hours after administration of the drug
  detection of MMF after administration: not detected 24 hours after administration
[10]; in vivo
  elimination half-life of MMF: about 1 hour
[10]; repeated administration
  accumulation of MMF in the body: does not accumulate in the body even after repeated administration
